Measurements from patent US20040038904A1, “Method of treating multiple sclerosis” (priority 2002, published 2004).

Test system: progressive multiple sclerosis
Test: Monitoring of progress of treatment (clinical condition) in patient with progressive multiple sclerosis
Format: in vivo, human
Conditions: epirubicin 75-100 mg iv with dexrazoxane, 12-week cycle, first and second treatment cycles
Text: Anthracyclines of the present invention can be administered in cycles over 7-week to 15-week intervals. Generally, treatment with anthracyclines is started with a 12-week cycle and the patient is monitored for progress of the treatment during the course of treatment. If the condition of the patient deteriorates between week 8 and 12 of the cycle, the treatment cycle should be shortened to, for example, 9 weeks or shorter.
A patient is diagnosed with progressive multiple sclerosis. Anthracycline therapy with epirubicin 75 mg by intravenous injection is initiated on a 12-week cycle. Prior to the administration of the anthracycline, the patient is pretreated with dexrazoxane at 750 mg by intravenous injection. The patient is monitored for progress of treatment and hematologic and non-hematologic toxicity throughout the course of treatment.

COc1cccc2c1C(=O)c1c(O)c3c(c(O)c1C2=O)C[C@@](O)(C(=O)CO)C[C@@H]3O[C@H]1C[C@H](N)[C@@H](O)[C@H](C)O1 [epirubicin]
patient's clinical condition during treatment cycle: deteriorates between weeks 9 and 12
